Where two headings read alike, the source gives them in different places.
What was measured:
[1] = tested on: Human Cryopreserved Hepatocytes; assay: Metabolic stability in human cryopreserved hepatocytes; assay type: in vitro ADME
Method: The metabolic stability of the Compounds of Examples 1 and 4 is therefore evaluated to determine whether metabolic degradation results in metabolites of concern.
Briefly, Human Cryopreserved Hepatocytes (Gibco, lot. HUE125) are added to incubation wells in a 96-well assay plate at a density of 500,000 cells/mL in William's E Medium. […] The wells are incubated at 37° C. and stop solution is added to wells at time points: 0, 30, 60, 120, 240 min. The stop solution is ice-cold solution containing 0.5 μM labetalol in acetonitrile (100 μL/well) (2:1, vol/vol). Each time point is tested in triplicate. Analysis is carried out by LC-MS.
• Instrument: QExactive • Column: Luna Omega 1.6 μm polar C18 100 Å (150×2.1 mm) • Column temperature: 40° C. • Column No: 102+pre-column installed • Injection volume: 2 μl • Flux: 0.40 mL/min • Polarity: Negative • Fluent A: water Milli Q+0.1% FA • Fluent B: ACN+0.1% FA • Acquisition method: Full MS+DDS on the IL obtained with MassMetaSite (peak others ON).

[2] = Egg concentration analysis from topically treated chickens; assay type: in vivo; settings: in vivo
Method: One animal is left untreated as a negative control.
A modified and optimized QuEChERS protocol was employed to extract the compounds from eggs. The shell is manually removed, and then each egg is transferred to a clean beaker and homogenized with an electric mixer for small volumes. 5 grams of homogenized egg is put into a 50 mL Falcon tube, and 5 mL of water is added and the samples are shaken for 10 minutes. Next, 10 mL of acetonitrile is added and the samples are shaken again for 10 minutes. Then the roQ salts (4.0 g MgSO4, 1.0 g NaCl, 1.0 SCTD and 0.5 g SCDS, Phenomenex P/N KS08909) are added to each sample, and the mixture is well shaken for 10 minutes. Samples are then centrifuged at 2500 g for 5 minutes at room temperature, and the supernatant is transferred to an HPLC vial for analysis. The same HPLC-MS method is used as described above.
One egg from two chickens is analyzed: one chicken treated with Fipronil and one chicken treated with the Compound of Example 1. The eggs are both from Day 5. The results are shown in the following tables expressed as relative LC-MS peak area: […]

[3] = tested on: Dermanyssus gallinae; assay: Antiparasitic efficacy on live chickens with natural mite infestation; assay type: in vivo; settings: by day 5 of treatment; 0.25% (w/v) spray, 7.5 mg/kg once daily for 5 days
Method: Two animals are treated with the compound of Example 1, and two animals are treated with Fipronil, while one animal is left untreated as a negative control. The infestation by D. gallinae is monitored by checking the density of mites in particular areas of the animal's bodies (feet, legs, and wings), comparing pre-treatment levels of infestation to post-treatment levels.
When all pests have been eliminated, a 100% pest control capability was achieved. In the case of some chemical products, when the pest was not fully eliminated, the disinfestation capacity was measured by averaging the number of infesting organisms located in three distinct areas of the treated animals, at the beginning of the treatment, and at the end of the treatment.

[4] = tested on: adult worker honeybees, Apis mellifera L; assay: Acute oral toxicity test in honeybees (OECD 213); assay type: in vivo
Method: Untreated 50% w/v sucrose solution with 0.2% of propanol-water solution (ratio 80%-20%) is used as a negative control.
The test item is diluted with aqueous sucrose solution 50% (w/v) to prepare the oral solutions. The bees used for the oral test are anesthetized with carbon dioxide for the time necessary to immobilize them and placed inside the test cages; 2 hours before the treatment they are starved. A volume of 200 μL (20 μL/bee) of treated diet is administered to each cage with a dispenser (e.g., a syringe without tip), weighed before and after filling.
The overall exposure period is 6 hours, during which consumption is monitored: the feeder is changed at the end of the six hours or once the treated diet has been consumed (usually within 3-4 hours). In both cases, the feeder is weighed and a new feeder with untreated 50% (w/v) sucrose solution is provided ad libitum, and the mean effective dose is calculated based on the actual consumption.

[5] = tested on: adult worker honeybees, Apis mellifera L; settings: contact
Description: In accordance with OECD Test Guidelines No. 213 and 214, the test is considered valid if: (1) the average mortality of the control groups is ≤10% at the end of the test; and the average, control-corrected mortality of the reference item groups is ≥50% at the end of the test, at the tested dose (internal validity criteria according to POS BT200).
Young Apis mellifera L. worker honeybees are randomly collected in the morning of use or the day before from an adequately fed, healthy diseases-free and queen right beehive, not treated with chemical substances. Hives from an established apiary colony are used, and the colonies are inspected periodically, according to standard bee-keeping practices. All colonies are kept outside under field conditions and bees collect food from the environment. The last treatment against Varroa mites was done in November 2023. The bees are fed ad libitum with a water sucrose solution 50% w/v (or 500 g/L), prepared with tap water.
Adult worker honeybees are exposed to three increasing doses of the test item (see Table 2) by direct application to the thorax (droplets, see section 4.5.2). One control group is treated with propanol-water solution (ratio 80%-20%) in addition to test item groups.
Bee mortality is recorded after 4, 24 and 48 hours, and compared with the control value. If the mortality rate increases by more than 10% between 24 and 48 hours, whilst the control mortality rate remains ≤10%, the is extended to a maximum of 96 hours.
The test item is diluted in propanol-water solution (ratio 80%-20%) to prepare the contact solutions.
The bees used for the contact test are anaesthetized with carbon dioxide and individually treated by topical application of 2 μL of the test solutions onto the thorax using a micro applicator. The honeybees are then be moved to the cages and fed ad libitum with sucrose solution.
Disposable and well-ventilated cages with an internal volume not lower than 200 cm^3 are used. Each cage is equipped with a transparent lid, for a suitable observation of the bees from outside. The upper side of the cage has at least one hole for inserting the feeder: a syringe filled of 50% (w/v) aqueous sucrose solution is inserted in one hole.
The tests are conducted under the following conditions: (a) Temperature: 25.00[…]; (b) Relative humidity: 60.00[…], The honeybees are kept under constant darkness except during the assessments. Throughout the experimental phase, the temperature and relative humidity is continuously recorded with a dedicated data-logger with sensors located close to the test units.
The number of dead honeybees per cage is recorded after 4, 24 and 48 hours. If a prolonged observation period is required, further assessments are made every 24 hours, tip to a maximum duration of 96 hours. The amount of diet consumed per group is quantitatively estimated if treated diet will be left after 6 hours of exposure.
Data is summarized in tabular form, showing the number of live, dead and abnormal bees per experimental group. The mortality of each replicate is calculated as a percentage, comparing the number of dead bees to those introduced at the beginning. The mean value of the treated group is compared to the mean mortality of the respective control group(s) using the Abbott's formula modified by Schneider-Orelli (POS BT 200): […]

For `N#Cc1nn(-c2c(Cl)cc(C(F)(F)F)cc2Cl)c2nc(O)cc(C(F)F)c12` [Example 4, 1-(2,6-dichloro-4-(trifluoromethyl)phenyl)-4-(difluoromethyl)-6-hydroxy-1H-pyrazolo[3,4-b]pyridine-3-carbonitrile], the “Original compound still present” value ([1]; after 240 minutes, 1 μM, 500,000 cells/mL, 37° C.) was “approximately 84.2%” and the “Metabolic stability (in words)” value ([1]; human hepatocytes, up to 240 min, 1 μM) was “highly metabolically stable”.
In the case of `NC(=O)c1nn(-c2c(Cl)cc(C(F)(F)F)cc2Cl)c(N)c1[S+]([O-])C(F)(F)F` (stereo not drawn) [Fipronil Amide, Fipronil amide], the “Relative LC-MS peak area of analyte in egg” value (shortened to “Relative LC-MS peak area”) [2] is reported as 3.8.
In the case of `N#Cc1nn(-c2c(Cl)cc(C(F)(F)F)cc2Cl)c(N)c1S(=O)(=O)C(F)(F)F` [Fipronil Sulfone, Fipronil sulfone], the “Relative LC-MS peak area” value ([2]; chicken, 5 days) is reported as 5.6.
In the case of `N#Cc1nn(-c2c(Cl)cc(C(F)(F)F)cc2Cl)c(N)c1[S+]([O-])C(F)(F)F` (stereo not drawn) [Fipronil, reference compound], the “Chickens free of mites” value [3] is reported as 100%, the “Relative LC-MS peak area” value ([2]; chicken, 5 days) is reported as 4.8 and the “% CM (4 hours)” value ([4]; group T1, dose 0.002 μg/bee) is reported as 0.0%. For the same compound, the “% CM (24 hours)” value ([4]; group T1, dose 0.002 μg/bee) was 20.8%, the “% CM (48 hours)” value ([4]; group T1, dose 0.002 μg/bee) was 23.8% and the “% CM (4 hours)” value ([4]; group T2, dose 0.004 μg/bee) was 0.0%. The “% CM (24 hours)” value ([4]; group T2, dose 0.004 μg/bee) was 37.5%, the “% CM (48 hours)” value ([4]; group T2, dose 0.004 μg/bee) was 33.3% and the “% CM (4 hours)” value ([4]; group T3, dose 0.006 μg/bee) was 3.3%. The “% CM (24 hours)” value ([4]; group T3, dose 0.006 μg/bee) was 58.3%, the “% CM (48 hours)” value ([4]; group T3, dose 0.006 μg/bee) was 66.7% and the “% CM (4 hours)” value ([5]; group T1, dose 0.002 μg/bee) was 0.0%. For the same compound, the “% CM (24 hours)” value ([5]; group T1, dose 0.002 μg/bee) was 7.1%, the “% CM (48 hours)” value ([5]; group T1, dose 0.002 μg/bee) was 7.7% and the “% CM (4 hours)” value ([5]; group T2, dose 0.004 μg/bee) was 0.0%. For the same compound, the “% CM (24 hours)” value ([5]; group T2, dose 0.004 μg/bee) was 25.0%, the “% CM (48 hours)” value ([5]; group T2, dose 0.004 μg/bee) was 30.8% and the “% CM (4 hours)” value ([5]; group T3, dose 0.006 μg/bee) was 0.0%. For the same compound, the “% CM (24 hours)” value ([5]; group T3, dose 0.006 μg/bee) was 71.4% and the “% CM (48 hours)” value ([5]; group T3, dose 0.006 μg/bee) was 76.9%.
